# Measurements taken from US20250230147A1, “LACTAMS AS CBL-B INHIBITORS” (Genentech, Inc., priority 2021, published 2025).
# Experiments:
# Cbl-b = Cbl-b (Homo sapiens (Human), UniProt Q13191); test: Cbl-b LCK Ub TR-FRET assay (Cbl-b Lck HTRF); assay type: biochemical
# In short: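 TR-FRET (340 nm excitation, 615/665 nm emission) read after adding HA-ubiquitin–UBE2D2 thioester, anti-HA-D2 and streptavidin-Eu. Beforehand, compounds incubated 60 min with biotinylated Cbl-b, then 90 min with His-LCK and ATP (1 mM in 2× mix); IC50 from 10 concentrations, DMSO high and no-LCK low controls.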
# c-Cbl = c-Cbl (Homo sapiens (Human), UniProt P22681); test: C-Cbl LCK Ub TR-FRET assay (c-cbl Lck HTRF); assay type: biochemical; conditions: for (fold-selectivity): C-cbl Lck HTRF IC50 relative to Cbl-b Lck HTRF IC50
# Chain of c-Cbl (P22681 47-435): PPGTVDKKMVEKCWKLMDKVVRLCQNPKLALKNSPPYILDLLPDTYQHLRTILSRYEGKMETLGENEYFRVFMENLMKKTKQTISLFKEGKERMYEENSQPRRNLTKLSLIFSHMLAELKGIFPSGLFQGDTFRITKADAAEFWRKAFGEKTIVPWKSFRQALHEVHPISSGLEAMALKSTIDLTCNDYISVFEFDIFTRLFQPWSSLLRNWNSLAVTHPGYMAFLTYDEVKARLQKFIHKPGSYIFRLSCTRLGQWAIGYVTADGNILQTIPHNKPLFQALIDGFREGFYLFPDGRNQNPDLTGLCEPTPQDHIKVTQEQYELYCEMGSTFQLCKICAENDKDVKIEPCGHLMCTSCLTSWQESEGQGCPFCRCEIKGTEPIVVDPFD
# In short: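 After the ubiquitination reaction, detection mixture was added and plates incubated 20 min at room temperature before reading. IC50 values were calculated with wells lacking LCK as the low control and DMSO as the high control.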
# Chain of Cbl-b (Q13191 40-426): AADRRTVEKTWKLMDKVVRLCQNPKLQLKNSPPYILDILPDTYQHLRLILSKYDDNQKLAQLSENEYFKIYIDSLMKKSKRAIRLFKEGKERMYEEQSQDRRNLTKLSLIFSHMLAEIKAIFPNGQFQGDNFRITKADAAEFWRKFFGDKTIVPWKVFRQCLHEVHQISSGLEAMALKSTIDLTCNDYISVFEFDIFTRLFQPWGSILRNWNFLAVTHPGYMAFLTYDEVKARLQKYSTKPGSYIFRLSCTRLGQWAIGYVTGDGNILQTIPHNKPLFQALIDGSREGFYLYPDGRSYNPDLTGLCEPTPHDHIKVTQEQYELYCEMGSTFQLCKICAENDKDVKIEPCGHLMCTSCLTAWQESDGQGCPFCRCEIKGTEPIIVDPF
IC50 (Cbl-b),IC50 (c-Cbl),(fold-selectivity) (c-Cbl),Compound
15 nM,14 nM,(0.95x),"Cn1cnnc1[C@@H](F)C1(c2cccc(N3Cc4c(cc(CNCC5CC5)cc4C(F)(F)F)C3=O)c2)CC(F)(F)C1 [Compound 450, (S)-6-(((cyclopropylmethyl)amino)methyl)-2-(3-(3,3-difluoro-1-(fluoro(4-methyl-4H-1,2,4-triazol-3-yl)methyl)cyclobutyl)phenyl)-4-(trifluoromethyl)isoindolin-1-one]"
15 nM,10 nM,(0.71x),"CC(C)CNCc1cc2c(c(C(F)(F)F)c1)CN(c1cccc(C3([C@@H](F)c4nncn4C)CC(F)(F)C3)c1)C2=O [Compound 451, (R)-2-(3-(3,3-difluoro-1-(fluoro(4-methyl-4H-1,2,4-triazol-3-yl)methyl)cyclobutyl)phenyl)-6-((isobutylamino)methyl)-4-(trifluoromethyl)isoindolin-1-one]"
12 nM,9.1 nM,(0.78x),"CC(C)CNCc1cc2c(c(C(F)(F)F)c1)CN(c1cccc(C3([C@H](F)c4nncn4C)CC(F)(F)C3)c1)C2=O [Compound 452, (S)-2-(3-(3,3-difluoro-1-(fluoro(4-methyl-4H-1,2,4-triazol-3-yl)methyl)cyclobutyl)phenyl)-6-((isobutylamino)methyl)-4-(trifluoromethyl)isoindolin-1-one]"
14 nM,18 nM,(1.4x),"Cn1cnnc1CC1(c2cccc(N3Cc4c(cc([C@@H](N)C5CC5)cc4C(F)(F)F)C3=O)c2)CC(F)(F)C1 [Compound 453, (S)-6-(amino(cyclopropyl)methyl)-2-(3-(3,3-difluoro-1-((4-methyl-4H-1,2,4-triazol-3-yl)methyl)cyclobutyl)phenyl)-4-(trifluoromethyl)isoindolin-1-one]"
11000 nM,6200 nM,(0.57x),"CC(C)[C@H]1CN(C)CCN1Cc1cc2c(c(C(F)(F)F)c1)CN(c1cccc(C3([C@@H](F)c4nncn4C4CCCCC4)COC3)c1)C2=O [Compound 454, 2-(3-(3-((R)-(4-cyclohexyl-4H-1,2,4-triazol-3-yl)fluoromethyl)oxetan-3-yl)phenyl)-6-(((S)-2-isopropyl-4-methylpiperazin-1-yl)methyl)-4-(trifluoromethyl)isoindolin-1-one]"
4400 nM,3100 nM,(0.70x),"CC(C)[C@H]1CN(C)CCN1Cc1cc2c(c(C(F)(F)F)c1)CN(c1cccc(C3([C@H](F)c4nncn4C4CCCCC4)COC3)c1)C2=O [Compound 455, 2-(3-(3-((S)-(4-cyclohexyl-4H-1,2,4-triazol-3-yl)fluoromethyl)oxetan-3-yl)phenyl)-6-(((S)-2-isopropyl-4-methylpiperazin-1-yl)methyl)-4-(trifluoromethyl)isoindolin-1-one]"
13 nM,7.6 nM,(0.56x),"CCCNCc1cc2c(c(C(F)(F)F)c1)CN(c1cc(NC(C)C)cc(C3(Cc4nncn4C)CCC3)c1)C2=O [Compound 456, 2-(3-(isopropylamino)-5-(1-((4-methyl-4H-1,2,4-triazol-3-yl)methyl)cyclobutyl)phenyl)-6-((propylamino)methyl)-4-(trifluoromethyl)isoindolin-1-one]"
17 nM,12 nM,(0.71x),"CCNc1cc(N2Cc3c(cc(CNCC4CC4)cc3C(F)(F)F)C2=O)cc(C2(Cc3nncn3C)CCC2)c1 [Compound 457, 6-(((cyclopropylmethyl)amino)methyl)-2-(3-(ethylamino)-5-(1-((4-methyl-4H-1,2,4-triazol-3-yl)methyl)cyclobutyl)phenyl)-4-(trifluoromethyl)isoindolin-1-one]"
23 nM,15 nM,(0.66x),"CCCNCc1cc2c(c(C(F)(F)F)c1)CN(c1cc(NCC)cc(C3(Cc4nncn4C)CCC3)c1)C2=O [Compound 458, 2-(3-(ethylamino)-5-(1-((4-methyl-4H-1,2,4-triazol-3-yl)methyl)cyclobutyl)phenyl)-6-((propylamino)methyl)-4-(trifluoromethyl)isoindolin-1-one]"
13 nM,8.7 nM,(0.70x),"CC(C)Nc1cc(N2Cc3c(cc(CNCC4CC4)cc3C(F)(F)F)C2=O)cc(C2(Cc3nncn3C)CCC2)c1 [Compound 459, 6-(((cyclopropylmethyl)amino)methyl)-2-(3-(isopropylamino)-5-(1-((4-methyl-4H-1,2,4-triazol-3-yl)methyl)cyclobutyl)phenyl)-4-(trifluoromethyl)isoindolin-1-one]"
14 nM,8.4 nM,(0.58x),"CCN1CCN(Cc2cc3c(c(C(F)(F)F)c2)CN(c2cccc(C4([C@@H](F)c5nncn5C)CC(F)(F)C4)c2)C3=O)[C@@H](C(C)C)C1 [Compound 460, 2-(3-(3,3-difluoro-1-((R)-fluoro(4-methyl-4H-1,2,4-triazol-3-yl)methyl)cyclobutyl)phenyl)-6-(((S)-4-ethyl-2-isopropylpiperazin-1-yl)methyl)-4-(trifluoromethyl)isoindolin-1-one]"
9.9 nM,8.2 nM,(0.82x),"CCN1CCN(Cc2cc3c(c(C(F)(F)F)c2)CN(c2cccc(C4([C@H](F)c5nncn5C)CC(F)(F)C4)c2)C3=O)[C@@H](C(C)C)C1 [Compound 461, 2-(3-(3,3-difluoro-1-((S)-fluoro(4-methyl-4H-1,2,4-triazol-3-yl)methyl)cyclobutyl)phenyl)-6-(((S)-4-ethyl-2-isopropylpiperazin-1-yl)methyl)-4-(trifluoromethyl)isoindolin-1-one]"
8.3 nM,7.9 nM,(0.95x),"CC(C)Nc1cc(N2Cc3c(cc(CNC4(C)CCC4)cc3C(F)(F)F)C2=O)cc(C2(Cc3nncn3C)CCC2)c1 [Compound 462, 2-(3-(isopropylamino)-5-(1-((4-methyl-4H-1,2,4-triazol-3-yl)methyl)cyclobutyl)phenyl)-6-(((1-methylcyclobutyl)amino)methyl)-4-(trifluoromethyl)isoindolin-1-one]"
6 nM,3.5 nM,(0.55x),"CCNc1cc(N2Cc3c(cc(CNC4(C)CCC4)cc3C(F)(F)F)C2=O)cc(C2(Cc3nncn3C)CCC2)c1 [Compound 463, 2-(3-(ethylamino)-5-(1-((4-methyl-4H-1,2,4-triazol-3-yl)methyl)cyclobutyl)phenyl)-6-(((1-methylcyclobutyl)amino)methyl)-4-(trifluoromethyl)isoindolin-1-one]"
12 nM,12 nM,(1.0x),"Cn1cnnc1[C@H](F)C1(c2cccc(N3Cc4c(cc(CNC5(C)CCC5)cc4C(F)(F)F)C3=O)c2)CC(F)(F)C1 [Compound 464, (R)-2-(3-(3,3-difluoro-1-(fluoro(4-methyl-4H-1,2,4-triazol-3-yl)methyl)cyclobutyl)phenyl)-6-(((1-methylcyclobutyl)amino)methyl)-4-(trifluoromethyl)isoindolin-1-one]"
14 nM,13 nM,(0.90x),"Cn1cnnc1[C@@H](F)C1(c2cccc(N3Cc4c(cc(CNC5(C)CCC5)cc4C(F)(F)F)C3=O)c2)CC(F)(F)C1 [Compound 465, (S)-2-(3-(3,3-difluoro-1-(fluoro(4-methyl-4H-1,2,4-triazol-3-yl)methyl)cyclobutyl)phenyl)-6-(((1-methylcyclobutyl)amino)methyl)-4-(trifluoromethyl)isoindolin-1-one]"
6.4 nM,6.1 nM,(0.96x),"CCNc1cc(N2Cc3c(cc(CNC4(C)CCC4)cc3C(F)(F)F)C2=O)cc(C2(Cc3nncn3C)CC(F)(F)C2)c1 [Compound 466, 2-(3-(3,3-difluoro-1-((4-methyl-4H-1,2,4-triazol-3-yl)methyl)cyclobutyl)-5-(ethylamino)phenyl)-6-(((1-methylcyclobutyl)amino)methyl)-4-(trifluoromethyl)isoindolin-1-one]"
12 nM,11 nM,(0.89x),"Cn1cnnc1C[C@]1(c2cccc(N3Cc4c(cc(CNC5(C)CCC5)cc4C(F)(F)F)C3=O)c2)C[C@H](C#N)C1 [Compound 467, (1r,3r)-3-((4-methyl-4H-1,2,4-triazol-3-yl)methyl)-3-(3-(6-(((1-methylcyclobutyl)amino)methyl)-1-oxo-4-(trifluoromethyl)isoindolin-2-yl)phenyl)cyclobutanecarbonitrile]"
15 nM,15 nM,(1.0x),"Cn1cnnc1C[C@]1(c2cccc(N3Cc4c(cc(CNC5(C)CCC5)cc4C(F)(F)F)C3=O)c2)C[C@@H](C#N)C1 [Compound 468, (1s,3s)-3-((4-methyl-4H-1,2,4-triazol-3-yl)methyl)-3-(3-(6-(((1 - methylcyclobutyl)amino)methyl)-1-oxo-4-(trifluoromethyl)isoindolin-2-yl)phenyl)cyclobutanecarbonitrile]"
48 nM,52 nM,(1.1x),"CC[C@H]1CC[C@H](c2cc3c(c(C(F)(F)F)c2)CN(c2cccc(C4(Cc5nncn5C)CC(F)(F)C4)c2)C3=O)N1 [Compound 469, 2-(3-(3,3-difluoro-1-((4-methyl-4H-1,2,4-triazol-3-yl)methyl)cyclobutyl)phenyl)-6-((2R,5S)-5-ethylpyrrolidin-2-yl)-4-(trifluoromethyl)isoindolin-1-one]"
8.2 nM,6.8 nM,(0.83x),"Cn1cnnc1[C@H](F)C1(c2cccc(N3Cc4c(Br)cc(CNC5(C)CCC5)cc4C3=O)c2)COC1 [Compound 471, (R)-4-bromo-2-(3-(3-(fluoro(4-methyl-4H-1,2,4-triazol-3-yl)methyl)oxetan-3-yl)phenyl)-6-(((1-methylcyclobutyl)amino)methyl) isoindolin-1-one]"
